pEC50: −log10 of the molar value. ≈ marks a conversion by molar mass, not a printed value.
Tests used:
[1] = Microsomal stability in rat liver microsomes assessed as compound remaining measured after 30 mins; assay type: ADME, Microsome; settings: read-out: Stability
[2] = Oral bioavailability in CD-1 mouse at 10 mg/kg; assay type: ADME, organism-based; settings: in vivo
Relaxin receptor 1 [3] = molecular target: T1, Relaxin receptor 1 (Mus musculus, UniProt Q6R6I7); assay: Agonist activity at mouse RXFP1 stably expressed in HEK293 cells assessed as intracellular cAMP accumulation incubated for 30 mins by HTRF assay; assay type: functional, cell-based
T1 sequence (Q6R6I7 whole entry): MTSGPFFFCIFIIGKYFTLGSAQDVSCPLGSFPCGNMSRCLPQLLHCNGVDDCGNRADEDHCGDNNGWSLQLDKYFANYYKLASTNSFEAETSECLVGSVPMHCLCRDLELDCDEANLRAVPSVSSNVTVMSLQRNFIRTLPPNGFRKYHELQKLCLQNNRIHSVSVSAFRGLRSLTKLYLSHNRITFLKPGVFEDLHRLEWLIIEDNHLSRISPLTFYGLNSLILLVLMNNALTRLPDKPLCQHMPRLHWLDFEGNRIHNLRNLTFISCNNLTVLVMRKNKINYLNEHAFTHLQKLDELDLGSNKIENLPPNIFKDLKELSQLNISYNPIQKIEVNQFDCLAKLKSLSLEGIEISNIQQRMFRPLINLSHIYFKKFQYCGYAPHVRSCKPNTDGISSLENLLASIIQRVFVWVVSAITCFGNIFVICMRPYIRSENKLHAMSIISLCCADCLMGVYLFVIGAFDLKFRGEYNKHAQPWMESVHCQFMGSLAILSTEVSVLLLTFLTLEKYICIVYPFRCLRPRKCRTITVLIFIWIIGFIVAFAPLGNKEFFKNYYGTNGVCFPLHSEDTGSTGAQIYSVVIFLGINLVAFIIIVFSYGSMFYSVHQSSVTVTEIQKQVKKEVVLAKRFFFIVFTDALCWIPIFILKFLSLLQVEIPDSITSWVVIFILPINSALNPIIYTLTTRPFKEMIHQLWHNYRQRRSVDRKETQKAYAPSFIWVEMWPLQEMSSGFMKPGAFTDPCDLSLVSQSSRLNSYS

Relaxin receptor 1 [4] = molecular target: T1, Relaxin receptor 1; assay: Partial agonist activity at mouse RXFP1 expressed in HEK293 cells assessed as intracellular cAMP accumulation incubated for 30 mins by HTRF assay; assay type: functional, cell-based
[5] = Microsomal stability in human liver microsomes assessed as compound remaining measured after 30 mins; assay type: ADME, Microsome; settings: read-out: Stability
[6] = Microsomal stability in mouse liver microsomes assessed as compound remaining measured after 30 mins; assay type: ADME, Microsome; settings: read-out: Stability
Relaxin receptor 1 [7] = molecular target: T2, Relaxin receptor 1 (Rattus norvegicus, UniProt Q6R6I6); assay: Agonist activity at rat RXFP1 stably expressed in HEK293 cells assessed as intracellular cAMP accumulation incubated for 30 mins by HTRF assay; assay type: cell-based
T2 sequence (Q6R6I6 whole entry): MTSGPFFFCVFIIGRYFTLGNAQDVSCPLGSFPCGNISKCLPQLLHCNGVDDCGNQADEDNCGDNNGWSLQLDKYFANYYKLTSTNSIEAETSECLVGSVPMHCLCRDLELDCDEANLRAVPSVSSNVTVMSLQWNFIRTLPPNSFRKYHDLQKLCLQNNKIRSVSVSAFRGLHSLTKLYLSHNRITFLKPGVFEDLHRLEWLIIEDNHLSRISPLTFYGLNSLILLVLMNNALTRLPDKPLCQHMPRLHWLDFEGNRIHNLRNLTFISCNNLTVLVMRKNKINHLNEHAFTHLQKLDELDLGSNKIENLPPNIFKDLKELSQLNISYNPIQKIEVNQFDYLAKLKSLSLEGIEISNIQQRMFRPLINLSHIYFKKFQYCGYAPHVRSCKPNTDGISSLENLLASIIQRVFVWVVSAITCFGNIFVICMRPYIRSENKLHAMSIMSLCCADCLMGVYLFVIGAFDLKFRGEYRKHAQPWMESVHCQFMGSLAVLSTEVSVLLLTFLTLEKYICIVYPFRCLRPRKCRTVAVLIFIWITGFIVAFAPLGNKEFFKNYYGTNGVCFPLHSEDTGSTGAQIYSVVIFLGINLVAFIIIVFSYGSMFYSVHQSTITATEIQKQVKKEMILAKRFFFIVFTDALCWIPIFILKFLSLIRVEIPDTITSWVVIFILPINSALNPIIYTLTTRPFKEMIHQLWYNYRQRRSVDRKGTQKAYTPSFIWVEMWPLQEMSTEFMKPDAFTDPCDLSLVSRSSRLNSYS

[8] = Thermodynamic aqueous solubility of compound in phosphate buffer at pH 7.4 by reversed-phase ultrahigh pressure liquid chromatography; assay type: physicochemical; settings: phosphate buffer, read-out: Therm_solubility
Relaxin receptor 1 [9] = molecular target: T3, Relaxin receptor 1 (Homo sapiens, UniProt Q9HBX9); assay: Agonist activity at human RXFP1
T3 sequence (Q9HBX9 whole entry): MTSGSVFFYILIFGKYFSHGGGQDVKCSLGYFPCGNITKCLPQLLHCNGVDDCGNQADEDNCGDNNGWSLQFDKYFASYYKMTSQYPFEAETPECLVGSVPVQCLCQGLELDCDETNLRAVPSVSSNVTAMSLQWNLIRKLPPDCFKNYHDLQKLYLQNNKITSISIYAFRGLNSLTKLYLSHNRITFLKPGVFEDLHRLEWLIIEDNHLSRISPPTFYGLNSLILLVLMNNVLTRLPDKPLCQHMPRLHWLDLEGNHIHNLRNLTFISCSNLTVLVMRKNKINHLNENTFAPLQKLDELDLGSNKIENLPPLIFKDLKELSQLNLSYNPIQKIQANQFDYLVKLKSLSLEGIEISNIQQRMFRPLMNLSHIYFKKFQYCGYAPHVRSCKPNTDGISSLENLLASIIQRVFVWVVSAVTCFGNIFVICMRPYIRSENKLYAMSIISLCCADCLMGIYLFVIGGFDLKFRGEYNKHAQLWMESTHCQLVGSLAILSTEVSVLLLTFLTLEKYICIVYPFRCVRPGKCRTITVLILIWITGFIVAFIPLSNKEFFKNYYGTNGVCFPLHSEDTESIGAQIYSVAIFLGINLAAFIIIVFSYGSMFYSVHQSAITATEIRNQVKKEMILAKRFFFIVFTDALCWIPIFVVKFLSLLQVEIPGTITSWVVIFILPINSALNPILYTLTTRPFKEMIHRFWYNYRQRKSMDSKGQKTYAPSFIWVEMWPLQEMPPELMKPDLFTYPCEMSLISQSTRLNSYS

Rattus norvegicus [10] = assay: Chronotropic effect in iv dosed isoflurane-anesthetized male naive Sprague-Dawley rat model assessed as increase in heart rate measured after 60 mins; assay type: functional, organism-based; settings: dose lower […], dose upper 5.0 mg/kg/min
Rattus norvegicus [11] = assay: Chronotropic effect in isoflurane-anesthetized male naive Sprague-Dawley rat model assessed as effect on heart rate at 0.5 mg/kg/min, iv measured after 60 mins; assay type: functional, organism-based

Structure (SMILES)	remaining at 0.5 h [1] [%]	bioavailability [2] [%]	pEC50 (Relaxin receptor 1 [3])	pEC50 (Relaxin receptor 1 [4])	remaining at 0.5 h [5] [%]	remaining at 0.5 h [6] [%]	also measured
COc1ccc(-c2cc(C(=O)O)ccc2F)cc1C(=O)N[C@H]1[C@@H](C(=O)Nc2ccc(F)c(C(F)(F)F)c2)[C@H]2CC[C@@H]1/C2=C\C(F)(F)F	> 90	36	6.30	6.30	> 90	> 90	–
COc1ccc(-c2cc(C(=O)O)ccc2F)cc1C(=O)N[C@H]1[C@@H](C(=O)Nc2ccc(F)c(C(F)(F)F)c2)[C@H]2CC[C@@H]1/C2=C\c1cnoc1	> 90	–	6.24	6.24	> 90	> 90	pEC50 (Relaxin receptor 1 [7]): 6.06; solubility thermodynamic [8]: 15 µg/mL (≈ 22.5 µM)
COc1cc(F)c(F)cc1C(=O)Nc1ccccc1C(=O)Nc1ccc(F)c(C(F)(F)F)c1	–	–	–	–	–	–	pEC50 (Relaxin receptor 1 [9]): 5.92
CNC(=O)OC(C(=O)O)c1ccc(F)c(-c2ccc(OC)c(C(=O)N[C@H]3[C@@H](C(=O)Nc4ccc(F)c(C(F)(F)F)c4)[C@H]4CC[C@@H]3/C4=C\C3CC3)c2)c1 (stereo in doubt; 39)	–	–	–	–	–	–	Activity (Rattus norvegicus [10]): Dose-dependent-effect; Activity (Rattus norvegicus [11]): No effect
COc1ccc(-c2cncn2C)cc1C(=O)N[C@H]1[C@@H](C(=O)Nc2ccc(F)c(C(F)(F)F)c2)[C@H]2CC[C@@H]1C2=C(C)C	–	29	< 5.00	–	–	–	–

Source: ChEMBL document CHEMBL6182920, “The Discovery of C7-Substituted Norbornyl Bisamides as RXFP1 Small Molecule Agonists” (J Med Chem, 2025)
